How the values were obtained:
[1] = target: T1, serotonin 5-HT1A receptor (Rattus norvegicus, UniProt P19327); assay: 5-HT1A Binding: displacement of [3H] 8-OHDPAT
T1 construct: following the procedure of Hall et al., J. Neurochem; 44, 1685 (1985); from tissue; host or cells: brain tissue (from the cited method)
T1 sequence (P19327 1-422): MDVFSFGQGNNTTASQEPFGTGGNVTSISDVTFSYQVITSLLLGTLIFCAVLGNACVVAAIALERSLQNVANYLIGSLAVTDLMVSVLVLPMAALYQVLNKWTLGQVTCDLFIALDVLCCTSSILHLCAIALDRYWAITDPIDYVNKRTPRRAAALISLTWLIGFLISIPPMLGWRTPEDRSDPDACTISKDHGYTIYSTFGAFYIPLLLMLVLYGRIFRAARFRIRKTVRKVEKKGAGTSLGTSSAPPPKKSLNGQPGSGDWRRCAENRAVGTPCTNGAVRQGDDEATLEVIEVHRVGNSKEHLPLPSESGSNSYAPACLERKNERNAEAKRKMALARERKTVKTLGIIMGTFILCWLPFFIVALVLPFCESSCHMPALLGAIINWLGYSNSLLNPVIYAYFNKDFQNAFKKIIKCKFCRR
Excerpt: High affinity for the serotonin 5-HT1A receptor was established by testing the claimed compound's ability to displace [^3 H] 8-OHDPAT (dipropylaminotetralin) from the 5-HT1A serotonin receptor following the procedure of Hall et al., J. Neurochem. 44, 1685 (1985). […] The anxiolytic activity of buspirone is believed to be, at least partially, due to its 5-HT1A receptor affinity (Vander Maclen et al., Eur. J. Pharmacol. 1986, 129 (1-2) 133-130).

[2] = target: T2, dopamine D-2 receptor (Rattus norvegicus, UniProt P61169); assay: D-2 Binding: displacement of 3H-spiroperidol in homogenized limbic brain tissue
T2 construct: from tissue; host or cells: homogenized limbic brain tissue
T2 sequence (P61169 whole entry): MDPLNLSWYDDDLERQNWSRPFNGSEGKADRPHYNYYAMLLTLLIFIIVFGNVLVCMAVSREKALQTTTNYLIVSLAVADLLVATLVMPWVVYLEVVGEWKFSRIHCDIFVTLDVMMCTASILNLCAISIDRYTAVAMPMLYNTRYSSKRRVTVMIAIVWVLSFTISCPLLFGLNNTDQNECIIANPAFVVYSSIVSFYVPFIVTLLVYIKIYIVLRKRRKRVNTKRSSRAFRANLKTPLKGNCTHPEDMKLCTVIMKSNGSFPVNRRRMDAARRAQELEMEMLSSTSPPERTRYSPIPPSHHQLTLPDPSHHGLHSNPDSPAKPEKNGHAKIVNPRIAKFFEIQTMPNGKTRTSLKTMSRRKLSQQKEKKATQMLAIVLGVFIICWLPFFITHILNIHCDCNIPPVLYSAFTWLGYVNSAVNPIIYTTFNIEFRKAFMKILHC
Protocol: High affinity for the dopamine D2 receptor was established by the standard experimental test procedure of Fields, et al., Brain Res., 136, 578 (1977) and Yamamura et al., eds., Neurotransmitter Receptor Binding, Raven Press, New York (1978) wherein homogenized limbic brain tissue is incubated with ^3 H-spiroperidol and various concentrations of test compound, filtered and washed and shaken with Hydrofluor scintillation cocktail (National Diagnostics) and counted in a Packard 460 CD scintillation counter.

[3] = tested on: serotonin syndrome (5-HT1A); assay: Antagonism of 5-HT1A agonist-induced (5-MeODMT or 8-OH-DPAT) serotonin syndrome; type: in vivo, male Sprague-Dawley CD rats; conditions: for ED50: Rattus norvegicus, rats
Protocol: (§1) Certain of the compounds of this invention were also compared to buspirone in their ability to either produce or antagonize the serotonin syndrome according to the procedure of Smith and Peroutka, Pharmacol. Biochem. Behav. 24: 1513-1519, 1986, in which 250-350 g male Sprague-Dawley CD rats (Charles River) are given either test compound or vehicle and placed individually into plexiglass observation cages. Agonist activity of the compound is determined by scoring for the presence of the serotonin syndrome (forepaw treading, head weaving, tremor, hindlimb abduction, flattened body posture, and Straub tail) during the first 15 minutes after compound administration. Antagonist activity is then determined by a challenge with either of the 5-HT1A agonists 5-methoxy-N,N-dimethyltryptamine (5-MeODMT) or 8-hydroxydipropylaminotetralin.

[4] = tested on: serotonin syndrome (5-HT1A); assay: Production of the serotonin syndrome (agonist activity); type: in vivo, male Sprague-Dawley CD rats; conditions: for ED50: Rattus norvegicus, 0.25 h, first 15 minutes after compound administration, read-out: ED50 for producing the serotonin syndrome
Protocol: as §1

[5] = tested on: 5-HT1A receptor; conditions: cited from earlier work
[6] = target: T1, serotonin 5-HT1A receptor; conditions: buspirone, standard for anxiolytic activity; cited from earlier work

Row | Structure (SMILES) | inhibition at 0.1 µM [1] [%] | inhibition at 1 µM [2] [%] | also measured
1 | CC1(C)C2CCC1(C(=O)NCCNCC1COc3ccccc3O1)C(=O)C2 (single isomer, unassigned; (+)) [Example 5, (+)-N-[2-[[(2,3-Dihydro-1,4-benzodioxin-2-yl)methyl]amino]ethyl]-7,7-dimethyl-2-oxobicyclo[2,2,1]heptane-1-carboxamide] | 97 | 34 | ED50 ([3]; challenge with 8-OH-DPAT, read-out: ED50 for antagonizing 8-OH-DPAT induced syndrome): 4.7 mg/kg; EC50 ([1]; 5-HT1A binding, given as EC50): 3 nM; ED50 ([4]; rats): 3.8 mg/kg
2 | O=C1CC2(CCCC2)CC(=O)N1CCCCNCC1COc2ccccc2O1 (single isomer, unassigned; (-)) [(-)-MDL 72832] |  |  | binding relative to the dextrorotary isomer at the 5-HT1A receptor site ([5]; (-)-isomer vs dextrorotary isomer): 32 times
3 | O=C(OCCNCC1COc2ccccc2O1)C12CC3CC(CC(C3)C1)C2 (stereo not drawn) [Example 2, Tricyclo[3,3,1,1(3,7)]decane-1-carboxylic acid 2-[[(2,3-dihydro-1,4-benzodioxin-2-yl)methyl]amino]ethyl ester] | 100 | 91 | 
4 | O=C(NCCNCC1COc2ccccc2O1)NC12CC3CC(CC(C3)C1)C2 (stereo not drawn) [Example 3, N-[2-[(2,3-Dihydro-1,4-benzodioxin-2-yl)methylamino]ethyl]-N'-tricyclo[3,3,1,1(3,7)]dec-1-ylurea] | 98 | 27 | ability to antagonize the serotonin syndrome ([3]; 1.0, 3.3, 10.0, and 33.0 mg/kg): mimicked buspirone's ability to antagonize the serotonin syndrome; IC50 ([1]; 5-HT1A binding): 5 nM; production of the serotonin syndrome on its own ([4]; compound alone, rats): did not produce the syndrome on its own
5 | O=C1CC2(CCCC2)CC(=O)N1CCCCNCC1COc2ccccc2O1 (stereo not drawn) [MDL 72832, 8-[4-(1,4-benzodioxan-2-ylmethylamino)butyl]-8-azaspiro[4.5]decane-7,9-dione] |  |  | 5-HT1A ligand character (in words) [5]: selective and stereospecific
6 | O=C1CC2(CCCC2)CC(=O)N1CCCCN1CCN(c2ncccn2)CC1 [buspirone, reference compound] |  |  | ED50 ([3]; challenge with 5-MeODMT, read-out: ED50 for antagonizing 5-MeODMT-induced syndrome): 4.6 mg/kg; affinity for the 5-HT1A serotonin receptor subtype (in words) [6]: potent affinity; ED50 ([4]; rats): 7.3 mg/kg; characterization as agonist/antagonist in the serotonin syndrome test ([4]; buspirone: from ED50s for production and antagonism): partial agonist

Continued, in another order:

Row | inhibition at 0.1 µM [1] [%] | inhibition at 1 µM [2] [%] | Structure (SMILES) | also measured
7 | 90 | 49 | CC1(C)[C@H]2CC[C@]1(CS(=O)(=O)NCCNCC1COc3ccccc3O1)C(=O)C2 (single isomer, unassigned) [Example 8] | IC50 ([1]; 5-HT1A binding): 9 nM
8 | 88 | 34 | CC1(C)C2CCC1(C(=O)NCCNCC1COc3ccccc3O1)C(=O)C2 (single isomer, unassigned; (-)) [Example 6] | characterization as agonist/antagonist in the serotonin syndrome test ([4]; single dose of 20 mg/kg): partial agonist
9 | 100 | 83 | O=C(NCCNCC1COc2ccccc2O1)C12CC3CC(CC(C3)C1)C2 (stereo not drawn) [Example 1, N-[2-[[(2,3-Dihydro-1,4-benzodioxin-2-yl)methyl]amino]ethyl]tricyclo[3,3,1,1(3,7)]-decane-1-carboxamide] | 
10 | 95 | 55 | O=C(NCCNCC1COc2ccccc2O1)NC12CC3CC(CC1C3)C2 (stereo not drawn) [Example 4, N-[2-[(2,3-Dihydro-1,4-benzodioxin-2-yl)methyl]aminoethyl-N'-hexahydro-2,5-methanopentalen-3a(1H)-yl]urea] | 
11 | 98 | 81 | O=C(NCCNCC1COc2ccccc2O1)C12CC3CC(CC1C3)C2 (stereo not drawn) [Example 7, N-[2-[[(2,3-Dihydro-1,4-benzodioxin-2-yl)methyl]amino]ethyl]hexahydro-2,5-methanopentalene-3a(1H)-carboxamide] | 
